Measurements published in patent US20010055590A1, “Method for enhancing myoblast migration and invasion in the context of gene therapy” (priority 1999, published 2001).

B1: recombinant human platelet-derived growth factor-BB (protein, UniProt P01127 82-190, looked up)
Platelet-derived growth …: SLGSLTIAEPAMIAECKTRTEVFEISRRLIDRTNANFLVWPPCVEVQRCSGCCNNRNVQCRPTQVQLRPVQVRKIEIVRKKPIFKKATVTLEDHLACKCETVAAARPVT
modifications: Platelet-derived growth factor subunit B
notes: recombinant human platelet-derived growth factor-BB

Experiments:
Assay type in all cases: cell-based
MMP-2 = experiment: Gelatin zymography of mouse myoblast culture medium, MMP-2; conditions: mouse myoblasts treated 24 hours; densitometry normalized to DMEM control
Description: Briefly, myoblasts were grown in 6 cm tissue culture plates to approximately 70% confluence, then rinsed three times with serumfree DMEM and incubated for 3 hours in DMEM containing 0.2% BSA to eliminate the effects of serum. Growth factors were added and cells were incubated for 24 hours. Culture medium was then collected, centrifuged to pellet detached cells, and concentrated ten-to twenty-fold using the Centricon-10 (Amicon, Beverly, Mass.) system. The protein concentration of the supernatants was determined using the Bio-Rad protein microassay system with BSA used as the standard. Samples were stored at −70° C. until use. For gelatin zymography, aliquots (10 μg as the total protein per sample) were electrophoresed at constant voltage on a 10% polyacrylamide gel containing 2 mg/ml gelatin. The gel was rinsed three times for 15 min in 2.5% Triton-X 100 to remove SDS and renature the proteins, then incubated in MMP activation buffer (0.05 M Tris-HCl, pH 7.5 with 5 mM CaCl2) for 24 hours at 37° C. with constant shaking. Gels were stained overnight in 0.5% Coomassie blue R-250, and destained for 1 hour in 40% methanol: 10% acetic acid. Proteinase activity was quantified by densitometric scanning of bands using a Bio-Rad Gel Doc 1000 video camera imaging system (Bio Rad, Hercules, Calif.). […] Values are arbitrary densitometric units, which are normalized to DMEM control for each experiment and shown as values ±SEM representing a minimum of 3 experiments per condition. […] Mouse myoblasts were treated for 24 hours with either DMEM alone, fibronectin (50 μg/ml), or individual fragments (37.5 μg/ml) of 45, 120, 63 (Retronectin), 75 kDa and their combinations, 45 kDa/120 kDa and 120 kDa/63 kDa.

mouse myoblasts = experiment: In vitro mouse myoblast migration assay (gelatin-coated membrane); conditions: 12 hours; for effect on mouse myoblast migration: stimulant in bottom chamber; for stimulation of mouse myoblast migration over the DMEM control: 25 ng/ml bFGF, 50 μg/ml fibronectin, 10 ng/ml HGF, 2 ng/ml TGF-β1
Description: Mouse myoblasts were previously isolated from hind limb muscles of 4-6 week old severe combined immunodeficient (SCID) mice and clonally purified from contaminating fibroblasts (Yao et al. “Primary myoblast-mediated gene: transfer: persistent expression of human factor IX in mice” Gene Therapy 1:99-107, 1994). Myoblasts (approximately 1×10^6 cells) were plated on 6 cm tissue culture plates coated with 0.5% gelatin (Sigma, St. Louis, Mo.) and grown in growth medium consisting of Dulbecco's Modified Eagle Medium (DMEM) (Gibco BRL, Gaithersburg Md.) supplemented with 20% fetal bovine serum (FBS; Gibco) and 0.5% chick embryo extract (CEE; Gibco). All animal studies were carried out following the institutional guidelines for ethical animal use. Human myoblasts were isolated using trypsin digestion from abdominal wall or chest wall muscle biopsies, and surgery. Written consent was obtained from all patients prior to biopsy isolation as approved by the University Hospital's Institutional Regulation Board on the use of human subjects. Cells were preplated on uncoated plates for 1 hour to separate muscle fibroblasts. […] All experiments were done with myoblasts of passage 7 or lower. Myoblast migration and invasion were examined using a commercially available in vitro cell migration and invasion assay kit (Biocoat, Becton Dickinson, Franklin Lakes, N.J.) as described by Albini et al. (A rapid in vitro assay for quantitating the invasive potential of tumor cells Cancer Res 47:3239-3245, 1987). Myoblasts were grown to approximately 70% confluence, rinsed three times in serum-free DMEM, followed by incubation for 3 hours in 0.2% bovine serum albumin (BSA) in DMEM to eliminate the effects of serum. Cells were then trypsinized and collected by centrifugation. Cells were resuspended in serum-free DMEM at a density of 1×10^5 cells/ml, and 0.5 ml aliquots of cell suspension were added to the top chamber. […] Fibronectin subfragments of 45 KDa (Sigma), 120 kDa (Gibco), 63 kDa (Retronectin, Takara) and 70 KDa (Sigma) were used alone or in combination. […] For migration studies, the upper chamber membrane was coated with 0.1% gelatin and cells were allowed to migrate for 8-12 hours, while for invasion studies, the upper membrane was coated with 5 μl of Matrigel® diluted to 5 mg/ml in sterile phosphate buffered saline (PBS) and cells were allowed to invade for 24 hours. The top side of the insert membrane was scrubbed free of cells using a cotton swab and the bottom side was stained using the Leukostat-I system (Fisher Diagnostics, Pittsburgh, Pa.). The number of cells per field was counted in 10 randomly selected fields and averaged for each condition. To evaluate the effects of inactivation or activation of MMPs, aliquots (0.05 units in 50 μl PBS) of purified human plasmin (Sigma) or 50 mM N-acetyl cysteine (NAC; Sigma) were added with the cells to the top chamber of the migration assay and growth factor was added to the bottom. […] Myoblasts (5×10^4 cells/well) were stimulated with various growth factors and fibronectin, and their ability to migrate or invade through a Matrigel® barrier (panel a, mouse myoblast migration at 12 hours; panel b, mouse myoblast invasion at 24 hours). […] Bars represent mean ±SEM from a minimum of 3 separate experiments. […] Further studies were done to elucidate the role of MMPs in cytokine-mediated mouse myoblast migration.

human myoblasts = experiment: In vitro human myoblast migration assay; conditions: 12 hour time point
Description: Mouse myoblasts were previously isolated from hind limb muscles of 4-6 week old severe combined immunodeficient (SCID) mice and clonally purified from contaminating fibroblasts (Yao et al. “Primary myoblast-mediated gene: transfer: persistent expression of human factor IX in mice” Gene Therapy 1:99-107, 1994). Myoblasts (approximately 1×10^6 cells) were plated on 6 cm tissue culture plates coated with 0.5% gelatin (Sigma, St. Louis, Mo.) and grown in growth medium consisting of Dulbecco's Modified Eagle Medium (DMEM) (Gibco BRL, Gaithersburg Md.) supplemented with 20% fetal bovine serum (FBS; Gibco) and 0.5% chick embryo extract (CEE; Gibco). All animal studies were carried out following the institutional guidelines for ethical animal use. Human myoblasts were isolated using trypsin digestion from abdominal wall or chest wall muscle biopsies, and surgery. Written consent was obtained from all patients prior to biopsy isolation as approved by the University Hospital's Institutional Regulation Board on the use of human subjects. Cells were preplated on uncoated plates for 1 hour to separate muscle fibroblasts. Approximately 95% of the cells were desmin-positive following immunohistochemical staining of representative culture samples, and were capable of differentiation into myotubes, indicating high purity of the myoblast preparation. All experiments were done with myoblasts of passage 7 or lower. Myoblast migration and invasion were examined using a commercially available in vitro cell migration and invasion assay kit (Biocoat, Becton Dickinson, Franklin Lakes, N.J.) as described by Albini et al. (A rapid in vitro assay for quantitating the invasive potential of tumor cells Cancer Res 47:3239-3245, 1987). Myoblasts were grown to approximately 70% confluence, rinsed three times in serum-free DMEM, followed by incubation for 3 hours in 0.2% bovine serum albumin (BSA) in DMEM to eliminate the effects of serum. Cells were then trypsinized and collected by centrifugation. Cells were resuspended in serum-free DMEM at a density of 1×10^5 cells/ml, and 0.5 ml aliquots of cell suspension were added to the top chamber. […] Fibronectin subfragments of 45 KDa (Sigma), 120 kDa (Gibco), 63 kDa (Retronectin, Takara) and 70 KDa (Sigma) were used alone or in combination. The growth factor concentrations used were those which could produce maximal effects as examined in the present studies by extending from values reported by Bischoff (“Chemotaxis of skeletal muscle satellite cells” Devel. Dynamics 208:505-515, 1997). For migration studies, the upper chamber membrane was coated with 0.1% gelatin and cells were allowed to migrate for 8-12 hours, while for invasion studies, the upper membrane was coated with 5 μl of Matrigel® diluted to 5 mg/ml in sterile phosphate buffered saline (PBS) and cells were allowed to invade for 24 hours. The top side of the insert membrane was scrubbed free of cells using a cotton swab and the bottom side was stained using the Leukostat-I system (Fisher Diagnostics, Pittsburgh, Pa.). The number of cells per field was counted in 10 randomly selected fields and averaged for each condition. To evaluate the effects of inactivation or activation of MMPs, aliquots (0.05 units in 50 μl PBS) of purified human plasmin (Sigma) or 50 mM N-acetyl cysteine (NAC; Sigma) were added with the cells to the top chamber of the migration assay and growth factor was added to the bottom. […] The effects of growth factors on human myoblast migration in vitro (12 hour time point) were somewhat different from those observed with mouse myoblasts. […] The greatly elevated level of migration of human myoblasts was due in part to the extremely low migration in the BSA control (basal level) of human cells compared to mouse cells. The largest effects on human myoblast migration were produced by fibronectin (100-fold), PDGF (about 62-fold), TGF-β (about 54-fold) and HGF (46-fold) over the control level, while bFGF produced only a 37-fold stimulation (FIG. 7a). […]

Row | Molecule | increase of total MMP-2 expression (MMP-2) [%] | effect on mouse myoblast migration (mouse myoblasts) | stimulation of mouse myoblast migration over the DMEM control (mouse myoblasts) [fold] | stimulation of human myoblast migration over the BSA control level (human myoblasts)
1 | recombinant human insulin-like growth factor-I [IGF-I] | 69 | stimulated migration of mouse myoblasts to various degrees | – | –
2 | purified human transforrning growth factor-β1 [TGF-β1] | 36 | stimulated migration of mouse myoblasts to various degrees | 5 | about 54 fold
3 | recombinant hepatocyte growth factor [HGF] | – | stimulated migration of mouse myoblasts to various degrees | 8 | 46 fold
4 | B1 | 35 | stimulated migration of mouse myoblasts to various degrees | – | about 62 fold
